Paper PMC12864978, “Covalent modification of a glutamic acid inspired by HaloTag technology” (Nature Communications, 2026)
“Also recorded” adds a separate entry of the source. Read-outs that look alike come from different tables or passages of the source. One block for each compound: values may come before it.

Tests used:
PDEδ [1] = biological target: T1, PDEδ (Homo sapiens, UniProt O43924); test: Covalent modification of PDEδ by MALDI mass spectrometry; assay type: binding; design: His tag; made in house; host or cells: Escherichia coli Rosetta (BL21DE3), pET plasmids; conditions: PDEδ 20 µM, compound 60 µM, HEPES pH 7.5, 37 °C; mean ± s.e.m.
Description: The solution was briefly centrifuged before a sample was taken at the designated time for analysis by MALDI. […] Mass spectra were obtained over the m/z range 15,000–25,000 using a Bruker UltrafleXtreme XIAL DI-TOF/TOF mass spectrometer. Percentages of covalent adduct formation were estimated by the relative intensity of the respective peaks in MALDI spectra.
1. Supplementary Figures and Tables
PDEδ (20 µM) was incubated with compounds (60 µM) in HEPES
Percentages of covalent adduct formation were estimated by the relative intensity of the respective peaks in MALDI spectra. Data are presented as mean ± s.e.m.
Apparent pseudo -first order kobs was estimated by percentages of covalent adduct formation at 2 hours by MALDI. Plot of kobs (h-1) against concentration (µM) was fitted by GraphPad […]
Prism Michaelis-Menten model and separate values for kinact and KI were obtained to calculate apparent […]
PDEδ (20 µM) was incubated with
Data are presented as mean ± s.e.m.
HEPES buffer, n = 3 for the rest). One-way ANOVA with matched time-points, with Geisser-

[2] = Compound stability in aqueous buffers; assay type: physicochemical
Description: (§1) Compound (1 mM) was incubated with the respective buffers (HEPES 20 mM, 150 mM NaCl, pH = 7.5; 0.2 M sodium acetate buffer, pH = 5.6; 0.2 M sodium citrate buffer, pH = 6.2; 0.2 M potassium phosphate buffer, pH = 7.4, 1 mM EDTA, with or without 10 mM GSH), with 1% DMSO adjusted for all conditions. […] Per cent (%) compound remaining in the solution was estimated by the ratio of areas under the curve, and data plotted were fitted to pseudo-1st kinetics in the calculation of rate constants (k) and half-lives (t1/2), where k is the negative slope of a linear regression of In (% compound remaining) over time. Half-lives (t1/2) in respective buffers and half-lives for GSH adduct formation (t1/2 GSH) were calculated with the following equations:1 t1/2=In2/k 2 kGSH=ktotalconsumptioninphosphatebufferinpresenceofGSH−k(phosphatebufferinabsenceofGSH) 3 t1/2GSH=In2/k(GSH) […]
(§2) a, Percentage (%) of compound remaining was monitored by HPLC-MS and data was fitted to pseudo-first kinetics in calculation of rate constants (k) and half-lives (t1/2) in respective buffers, where k is the negative slope of a linear regression of In (% compound remaining) over time and t 1/2 = In2/k. Initial […]
(§3) Initial GSH concentration =

[3] = GSH adduct formation (stability in the presence of GSH); assay type: physicochemical; conditions: phosphate buffer with 10 mM GSH; 10-fold excess of GSH at 10 mM, phosphate buffer pH 7.4, 37 °C; read-out: half-life for GSH adduct formation t1/2 GSH (converted)
Description: as §1, §2, §3

PDEδ [4] = biological target: T1, PDEδ; test: Competitive fluorescence polarisation assay (FA probe displacement); assay type: binding; design: His tag; made in house; host or cells: Escherichia coli Rosetta (BL21DE3), pET plasmids; conditions: PDEδ 40 nM, FA probe 24 nM, room temperature overnight
PDEδ [5] = biological target: T1, PDEδ; test: Differential scanning fluorimetry (NanoDSF); assay type: binding; design: His tag; made in house; host or cells: Escherichia coli Rosetta (BL21DE3), pET plasmids; conditions: PDEδ 20 µM, compound 60 µM; mean ± s.d., Fig. 2e; read-out: melting temperature shift ΔTm (NanoDSF)
Description: Afterwards, a sample of the solution was cooled down to room temperature and was loaded onto a capillary, followed by the measurement of fluorescence intensities at 350 nm and 330 nm from 20 °C up to 90 °C (with a rate of increment of 1 °C/min) using the Prometheus Panta device (NanoTemper® Technologies, DE).

PDEδ [6] = biological target: T1, PDEδ; test: Mass spectrometry analysis of PDEδ adducts after Glu-C digestion; assay type: binding; design: His tag; made in house; host or cells: Escherichia coli Rosetta (BL21DE3), pET plasmids; conditions: LC-MS/MS, 10:1 compound to protein
Description: For each replicate, 1.5 µg covalent adduct of PDEδ sample in PBS buffer was denatured, reduced, alkylated and digested by Glu-C and desalted, together with a negative control of unbound vehicle-treated PDEδ sample prior to mass spectrometry analysis. […] The final mixture containing 6.5 M guanidine hydrochloride was heated at 95 °C for 15 min. Subsequently, after cooling, 0.5 µl of a 50 mM dithiothreitol (DTT, cas 3483-12-3, Gerbu Biotechnik, #1008-100 g) solution was added. […] . Samples were incubated at 37 °C overnight with shaking at 400 rpm, protected from light. […] Desalting was carried out with stage tips with C18 extraction discs (Empore^TM high performance extraction discs, 47 mm, 3 M Bioanalytical Technologies #2215). Each stage tip, which consists of two stacked layers of C18 discs, was activated with methanol (100 µl), washed once with buffer B (100 µl, 0.1% formic acid, 80% acetonitrile), and twice with buffer A (100 µl/time, 0.1% formic acid). After sample loading and washing with buffer A once, the desalted sample was eluted with buffer B (20 µl/sample) and centrifuged at 500×g at room temperature for 5 min. Eluted samples were then dried in a SpeedVac at 30 °C.
Data evaluation was performed using MaxQuant software (v.2.2.0.0)[52]. […] Cleavages by Glu-C were analysed based on the enzyme that was used for digestion. […]

BxPC-3 cells = test: Real-time cell analysis (Incucyte) of proliferation; assay type: cell-based, human
Description: (§4) Real-time cell analysis (RTCA) was conducted using an Incucyte S3 live-cell analysis system (Sartorius AG, Germany). […] Following attachment overnight, the medium was replaced with fresh medium containing test compounds, with all conditions adjusted to contain 0.5% DMSO. […] Phase-contrast images (2 images per well) were automatically captured at 2-h intervals until control wells (DMSO-treated) reached full confluency. Cell growth was quantified using the instrument’s integrated Basic Analyser module by applying a confluence mask to calculate the percentage of phase area confluence. […] Dose-response curves were generated and fitted via four-parameter variable slope nonlinear regression to determine cellular IC₅₀ values.

MIA PaCa-2 cells = test: as above; assay type: cell-based, human
Description: as §4

NCI-H358 cells = test: as above; assay type: cell-based, human; conditions: read-out: cellular IC50
Description: as §4

PA-TU-8902 cells = test: as above; assay type: cell-based, human
Description: as §4

SW480 cells = test: as above; assay type: cell-based, human
Description: as §4

[7] = test system: panel of human cell lines; test: Cytotoxicity screening in a panel of human cell lines; assay type: cell-based; conditions: concentrations up to 25 µM
Description: Real-time cell analysis (RTCA) was conducted using an Incucyte S3 live-cell analysis system (Sartorius AG, Germany). Adherent cell lines were seeded at 5 × 10³ cells per well in 96-well plates containing 100 µl of culture medium and incubated overnight at 37 °C with 5% CO₂. Following attachment overnight, the medium was replaced with fresh medium containing test compounds, with all conditions adjusted to contain 0.5% DMSO. […] Phase-contrast images (2 images per well) were automatically captured at 2-h intervals until control wells (DMSO-treated) reached full confluency. Cell growth was quantified using the instrument’s integrated Basic Analyser module by applying a confluence mask to calculate the percentage of phase area confluence. For dose-response assessment, confluence values at 72 h post-treatment were normalised to the DMSO control and analysed using GraphPad Prism 9.5.1 (GraphPad Software, USA). Dose-response curves were generated and fitted via four-parameter variable slope nonlinear regression to determine cellular IC₅₀ values.
representative of biological replicates n = 3.
comet images for each condition were shown.
time live-cell imaging by Incucyte.
Source data are provided as […]

[8] = test system: Rheb localisation in PA-TU-8902 cells; test: Immunofluorescence staining of Rheb; assay type: cell-based, human; conditions: 5 µM, overnight
Description: Immunostaining: compound-treated PA-TU-8902 cells were washed once with cold PBS, fixed with 3.7% paraformaldehyde in PBS by incubation at room temperature for 10 min and permeabilised with 0.3% Triton X-100 in PBS by incubation at room temperature for 15 min. […] After washing with PBS-T three times, PBS-incubated cells were imaged with Observer Z1 (Carl Zeiss, Germany) with a 63× oil objective.

PDEδ [9] = conditions: previously developed PDEδ inhibitor chemotypes, Fig. 1b; read-out: KD (reported binding affinity); cited from earlier work
UNC119B = UNC119B (Homo sapiens, UniProt A6NIH7); test: Mass spectrometry analysis of UNC119B adducts after Lys-C digestion; conditions: 10 eq., overnight at 37 °C; including binding pocket p.E174
[10] = Homo sapiens, 72 h, read-out: cellular IC50

- % covalent modification at 24 h (PDEδ [1]): 8 ± 5%
Compound: Cc1ccc(-n2nc3c(=O)n(CCCC(=O)NCCCCCBr)nc(C)c3c2C)cc1 [2d]

Compound: Cc1ccc(-n2nc3c(=O)n(CCCC(=O)N(CCCCl)CC4CCNCC4)nc(C)c3c2C)cc1 [3a]
- % covalent modification at 24 h (PDEδ [1]): not reactive enough to yield any detectable covalent adduct

Compound: Cc1ccc(-n2nc3c(=O)n(CCCC(=O)N(CCCCCCl)CC4CCNCC4)nc(C)c3c2C)cc1 [3b]
- % covalent modification at 24 h (PDEδ [1]): not reactive enough to yield any detectable covalent adduct

Compound: Cc1ccc(-n2nc3c(=O)n(CCCC(=O)N(CCCBr)CC4CCNCC4)nc(C)c3c2C)cc1 [3c]
- % covalent modification at 24 h (PDEδ [1]): not reactive enough to yield any detectable covalent adduct

- % covalent modification at 24 h (PDEδ [1]): 11 ± 4%
Compound: Cc1ccc(-n2nc3c(=O)n(CCCC(=O)N(CCCCCBr)CC4CCNCC4)nc(C)c3c2C)cc1 [3d]

- % covalent modification at 24 h (PDEδ [1]): 23 ± 3%
Compound: Cc1ccc(-n2nc3c(=O)n(CCCCS(=O)(=O)N(CCCCCBr)CC4CCNCC4)nc(C)c3c2C)cc1 [4b]

- half-life at 1 mM ([2]; HEPES buffer, pH 7.5, 37 °C, compound 1 mM, read-out: half-life t1/2 in HEPES buffer (converted)): 85 h
- half-life at 1 mM ([2]; acetate buffer, pH 5.6, 37 °C, read-out: half-life t1/2 in acetate buffer (converted)): 43 h
- half-life at 1 mM [3]: 180 days
- % covalent modification at 24 h (PDEδ [1]): 62 ± 10%
- IC50 (PDEδ [4]): 0.017 ± 0.0061 µM
- ΔTm at 60 µM (PDEδ [5]): 14.7 ± 1.2 °C
- site of covalent modification in PDEδ (PDEδ [6]): either at p.E88 or p.E89
Compound: Cc1ccc(-n2nc3c(=O)n(CCCCS(=O)(=O)N(CCCCCCCBr)CC4CCNCC4)nc(C)c3c2C)cc1 [5e]

- IC50 (PDEδ [4]): 0.0137 ± 0.0034 µM
- ΔTm at 60 µM (PDEδ [5]): 11.3 ± 0.6 °C
Compound: Cc1ccc(-n2nc3c(=O)n(CCCCS(=O)(=O)N(CCCCCCCCl)CC4CCNCC4)nc(C)c3c2C)cc1 [5h]

- IC50 (BxPC-3 cells; [10]): > 26 µM
- IC50 (MIA PaCa-2 cells; Homo sapiens, MIA PaCa-2, 72 h, read-out: cellular IC50): 10.9 ± 1.9 µM
- IC50 (NCI-H358 cells; Homo sapiens, NCI-H358, 72 h, NCI-H358, 72 h): 6.8 ± 1.9 µM
- IC50 (NCI-H358 cells; NCI-H358, 72 h): 6.3 ± 1.9 µM
- IC50 (SW480 cells; [10]): > 50 µM
- IC50 (PDEδ [4]): 0.0082 ± 0.004 µM
- ΔTm at 60 µM (PDEδ [5]): 11.1 ± 0.6 °C
Compound: Cc1ccc(-n2nc3c(=O)n(CCCCS(=O)(=O)N(CCc4cccc(CCCl)c4)CC4CCNCC4)nc(C)c3c2C)cc1 [6b]
- IC50 (PA-TU-8902 cells; Homo sapiens, PaTu 8902, PA-TU-8902, 72 h, read-out: cellular IC50): 12 ± 1 µM
- general cytotoxicity [7]: not observed

Compound: Cc1ccc(-n2nc3c(=O)n(CCCC(=O)NCC(C)c4ccccc4)nc(C)c3c2C)cc1 (centres unmarked) [Deltazinone 1, reference compound]
- cellular Rheb distribution [8]: loss of inhibition for PDEδ-Rheb interaction
- growth inhibition (BxPC-3 cells; doses up to 50 µM): little or no growth inhibition
- % Growth rate of MIA PaCa-2 cells (MIA PaCa-2 cells; 25 µM): 96%
- % Growth rate of MIA PaCa-2 cells (MIA PaCa-2 cells; 50 µM): 80%
- growth inhibition (MIA PaCa-2 cells; MIA PaCa-2, doses up to 50 µM): little or no growth inhibition; also recorded: no anti-proliferative activity
- IC50 (NCI-H358 cells; Homo sapiens, NCI-H358, 72 h): 0.14 ± 0.11 µM
- % Growth rate of PA-TU-8902 cells (PA-TU-8902 cells; 25 µM): 29%
- % Growth rate of PA-TU-8902 cells (PA-TU-8902 cells; 50 µM): 23%
- growth inhibition (SW480 cells; doses up to 50 µM): little or no growth inhibition

Compound: Cc1c(Cl)cccc1NC(=O)CCCn1nc(C)c2c(C)n(-c3ccccc3)nc2c1=O [Deltazinone derivative]
- Kd (PDEδ [9]): 0.005 ± 0.002 µM

- covalent modification of acid sites in UNC119B (UNC119B): covalently modified
Compound: CCOC(=O)N1CCC(Nc2c(NCCCBr)c(=O)c2=O)CC1 [compound 7]
